Measurements taken from patent US6127380A, “4-aminoalkoxy-1H-benzoimidazoles” (American Home Products Corporation, priority 1998, dated 2000).
Read-outs that look alike come from different tables or passages of the source.

Assays:
[1] = target: T1, dopamine autoreceptor (D2) (Rattus norvegicus, UniProt P61169); assay: Affinity for the dopamine autoreceptor, 3H-quinpirole binding in homogenized rat striatal brain tissue (D2 Quin.)
T1 construct: homogenized rat striatal brain tissue; from tissue; host or cells: rat striatum, homogenate
Description: Affinity for the dopamine autoreceptor was established by a modification of the standard experimental test procedure of Seemen and Schaus, European Journal of Pharmacology 203: 105-109, 1991, wherein homogenized rat striatal brain tissue is incubated with ^3 H-quinpirole (Quin.) and various concentrations of test compound, filtered and washed and counted in a Betaplate scintillation counter.

dopamine D-2 receptor = target: T2, dopamine D-2 receptor (Rattus norvegicus, UniProt P61169); assay: Affinity for the dopamine D-2 receptor, 3H-spiroperidol binding in homogenized limbic brain tissue (D2 Spiper); conditions: for Ratio: IC50 D2 Spiper / IC50 D2 Quin. (LowAg/HighAg, predicts intrinsic activity)
T2 construct: from tissue; host or cells: limbic brain tissue, homogenate
Description: High affinity for the dopamine D-2 receptor was established by the standard experimental test procedure of Fields, et al., Brain Res., 136, 578 (1977) and Yamamura et al., eds., Neurotransmitter Receptor Binding, Raven Press, N.Y. (1978) wherein homogenized limbic brain tissue is incubated with ^3 H-spiroperidol (Spiper.) and various concentrations of test compound, filtered and washed and shaken with Hydrofluor scintillation cocktail (National Diagnostics) and counted in a Packard 460 CD scintillation counter.

[2] = 3H-quinpirole, homogenized rat striatal brain tissue, read-out: IC50 (nM) D2 Quin.
[3] = 3H-spiroperidol, homogenized limbic brain tissue, read-out: IC50 (nM) D2 Spiper

T2 sequence (P61169 whole entry): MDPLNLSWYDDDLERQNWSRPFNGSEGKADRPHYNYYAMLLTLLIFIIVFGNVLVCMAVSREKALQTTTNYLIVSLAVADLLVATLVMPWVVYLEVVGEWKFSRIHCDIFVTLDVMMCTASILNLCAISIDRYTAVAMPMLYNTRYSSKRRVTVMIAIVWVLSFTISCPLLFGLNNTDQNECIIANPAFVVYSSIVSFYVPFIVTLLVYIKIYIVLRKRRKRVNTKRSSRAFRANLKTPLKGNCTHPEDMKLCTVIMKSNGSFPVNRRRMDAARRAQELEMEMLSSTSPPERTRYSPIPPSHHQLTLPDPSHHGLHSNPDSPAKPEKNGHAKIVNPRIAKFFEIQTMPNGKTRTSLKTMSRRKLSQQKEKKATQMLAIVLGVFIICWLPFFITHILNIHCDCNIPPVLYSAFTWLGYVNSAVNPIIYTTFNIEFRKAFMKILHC
T1 sequence (P61169 whole entry): as above

Row | Structure (SMILES) | IC50 [1, 2] | IC50 (dopamine D-2 receptor; [3]) | Ratio (dopamine D-2 receptor) | IC50 [1] | IC50 (dopamine D-2 receptor)
1 | FC(F)(F)c1ccc(CNCCOc2cccc3[nH]c(C(F)(F)F)nc23)cc1 [Example 17, [2-(2-Trifluoromethyl-1H-benzoimidazol-4-yloxy)-ethyl]-(4-trifluoromethyl-benzyl)-amine] | 1.16 nM | 87 nM | 75.0 | – | –
2 | c1ccc(CNCCOc2cccc3nc[nH]c23)cc1 [Example 1, [2-(1H-Benzoimidazol-4-yloxy)-ethyl]-benzyl-amine] | 26.7 nM | – | – | – | –
3 | c1csc(CNCCOc2cccc3[nH]cnc23)c1 [Example 11, Thiophen-2-ylmethyl-[2-(1H-benzoimidazol-4-yloxy)-ethyl]-amine] | 52.8 nM | – | – | – | –
4 | FC(F)(F)c1nc2c(OCCNCc3ccc(Cl)cc3)cc(Cl)cc2[nH]1 [Example 15, 4-Chloro-benzyl-[2-(6-chloro-2-trifluoromethyl-1H-benzoimidazol-4-yloxy)-ethyl]-amine] | 7.77 nM | 395 nM | 50.8 | – | –
5 | Cc1ccc(CNCCOc2cccc3[nH]c(C(F)(F)C(F)(F)C(F)(F)F)nc23)cc1 [Example 12, (4-Methyl-benzyl)-{2-[2-(1,1,2,2,3,3,3-heptafluoro-propyl)-1H-benzoimidazol-4-yloxy]-ethyl}-amine] | – | – | 23.0 | 5.12 nM | 118 nM
6 | Cc1ccc(CNCCOc2cccc3[nH]c(Cc4ccccc4)nc23)cc1 [Example 5, [2-(2-Benzyl-1H-benzoimidazol-4-yloxy)-ethyl]-(4-methyl-benzyl)-amine] | 54.8 nM | 2160 nM | 39.4 | – | –
7 | Cc1nc2c(OCCNCc3ccccc3)cccc2[nH]1 [Example 2, Benzyl-[2-(2-methyl-1H-benzoimidazol-4-yloxy)-ethyl]-amine] | 8.85 nM | 339 nM | 38.3 | – | –
8 | Cc1ccc(CNCCOc2cccc3[nH]c(C(F)(F)C(F)(F)F)nc23)cc1 [Example 6, (4-Methyl-benzyl)-{2-[2-(1,1,2,2,2-pentafluoro-ethyl)-1H-benzoimidazol-4-yloxy]-ethyl}-amine] | 1.44 nM | 66.5 nM | 46.2 | – | –
9 | FC(F)(F)c1nc2c(OCCN3CCc4ccccc4C3)cccc2[nH]1 [Example 13] | 8 nM | 314 nM | 39.4 | – | –

Now from value to molecule, other results behind:

Row | IC50 [1, 2] | IC50 (dopamine D-2 receptor; [3]) | Ratio (dopamine D-2 receptor) | Structure (SMILES) | IC50 [1] | IC50 (dopamine D-2 receptor)
10 | 0.74 nM | 29.9 nM | 40.4 | Cc1ccc(CNCCOc2cccc3[nH]c(C(F)(F)F)nc23)cc1 [Example 4, (4-Methyl-benzyl)-[2-(2-trifluoromethyl-1H-benzoimidazol-4-yloxy)-ethyl]-amine] | – | –
11 | 0.74 nM | 49 nM | 66.2 | Fc1ccc(CNCCOc2cccc3[nH]c(C(F)(F)F)nc23)cc1 [Example 16, (4-Fluoro-benzyl)-2[2-(2-trifluoromethyl-1H-benzoimidazol-4-yloxy)-ethyl]-amine] | – | –
12 | 1.41 nM | 41.9 nM | 29.7 | FC(F)(F)C(F)(F)c1nc2c(OCCNCc3ccccc3)cccc2[nH]1 [Example 9, Benzyl-{2-[2-(1,1,2,2,2-pentafluoro-ethyl)-1H-benzoimidazol-4-yloxy]-ethyl}-amine] | – | –
13 | 0.36 nM | 23.7 nM | 65.8 | FC(F)(F)c1nc2c(OCCNCc3ccccc3)cccc2[nH]1 [Example 3, Benzyl-[2-(2-trifluoromethyl-1H-benzoimidazol-4-yloxy)-ethyl]-amine] | – | –
14 | 1.03 nM | 37.4 nM | 36.3 | FC(F)(F)c1nc2c(OCCNCc3cccs3)cccc2[nH]1 [Example 7, Thiophen-2-ylmethyl-[2-(2-trifluoromethyl-1H-benzoimidazol-4-yloxy)-ethyl]-amine] | – | –
15 | 86.8 nM | 1460 nM | 16.8 | FC(F)(F)c1nc2c(OCCCNCc3ccccc3)cccc2[nH]1 [Example 8, Benzyl-[3-(2-trifluoromethyl-1H-benzoimidazol-4-yloxy)-propyl]-amine] | – | –
16 | 0.56 nM | – | – | FC(F)(F)c1nc2c(OCCNCCCc3ccccc3)cccc2[nH]1 [Example 18, (3-Phenyl-propyl)-[2-(2-trifluoromethyl-1H-benzoimidazol-4-yloxy)-ethyl]-amine] | – | –
17 | 1.42 nM | 151 nM | 106 | FC(F)(F)c1nc2c(OCCNCc3ccccc3)cc(Cl)cc2[nH]1 [Example 14, Benzyl-[2-(6-chloro-2-trifluoromethyl-1H-benzoimidazol-4-yloxy)-ethyl]-amine] | – | –
18 | 0.86 nM | 81.5 nM | 94.8 | FC(F)(F)c1nc2c(OCCNCc3cccc4ccccc34)cccc2[nH]1 [Example 10, Naphthalen-1-ylmethyl-[2-(2-trifluoromethyl-1H-benzoimidazol-4-yloxy]-ethyl]-amine] | – | –
